Earlier results as cited in US20050282937A1, “Electrochemical compatibilizer and hydrophobic wetting agent for fiber reinforced vinyl esters and related thermosets” (priority 2004, published 2005).
Converted amounts (≈) assume the structure as drawn. Where two headings read alike, the source gives them in different places.

Experiments:
Actinomyces israeli = conditions: Oral Bacteria, laboratory strain NCTC8047
Actinomyces naeslundi = conditions: Oral Bacteria
[1] = tested on: Actinomyces odontolyticus
Streptococcus mitor = conditions: Oral Bacteria
Streptococcus mutans [2] = conditions: Oral Bacteria, laboratory strain 6715
Steptococcus sobrinus = conditions: Oral Bacteria, laboratory strain OMZ176
Steptococcus sanguis = conditions: Oral Bacteria, laboratory strain 34
Porphyromonas gingivalis = conditions: Oral Bacteria, laboratory strain OMZ309
[3] = tested on: Actinobacillus actinomycesemcomitans; conditions: Oral Bacteria, laboratory strain Y4
Bacteroides gingivalis = conditions: Oral Bacteria, laboratory strain 381
Bacteroides intermedius = conditions: Oral Bacteria
C. ochracea = conditions: Oral Bacteria, laboratory strain NCTC11654
[4] = tested on: Peptococcus asacchrolyticus; conditions: Oral Bacteria, laboratory strain NCTC
Lactobacilli = conditions: Oral Bacteria, strain not given
[5] = tested on: Actinomyces actinomycetemcomitans; conditions: Fresh isolate from human plaque, Colgate-Palmolive data
Capnocytophaga spp = conditions: Fresh isolate from human plaque, Colgate-Palmolive data
P. anaerobius = conditions: Fresh isolate from human plaque, Colgate-Palmolive data
[6] = tested on: Peptostreptococcus micros; conditions: Fresh isolate from human plaque, Colgate-Palmolive data, strain 1422
P. acnes = conditions: Fresh isolate from human plaque, Colgate-Palmolive data, strain 1305
S. milleri = conditions: Fresh isolate from human plaque, Colgate-Palmolive data
S. mitior = conditions: Fresh isolate from human plaque, Colgate-Palmolive data
W. recta = conditions: Fresh isolate from human plaque, Colgate-Palmolive data, strain not given
Staphlococcus aureus = conditions: Bacteria associated with polymeric medical devices
[7] = tested on: Staphlococcus epidermidis; conditions: Bacteria associated with polymeric medical devices, strain ATCC12228
Staphlococcus hyicus = conditions: Bacteria associated with polymeric medical devices, strain ATCC27844
Staphlococcus hominus = conditions: Bacteria associated with polymeric medical devices, strain ATCC27844
[8] = tested on: Staphlococcus saprohyticus; conditions: Bacteria associated with polymeric medical devices, strain NCTC7292
Escherichia coli [9] = conditions: Bacteria associated with polymeric medical devices
[10] = tested on: Corynebacterium (Propionibacterium) acnes; conditions: Bacteria associated with polymeric medical devices, strain ATCC6919
Pseudomonas aeruginosa = conditions: Bacteria associated with polymeric medical devices
Listeria monocytogenes = conditions: Bacteria associated with polymeric medical devices, strain ATCC15313
Salmonella enteritidis = conditions: Bacteria associated with polymeric medical devices, strain A
Candida albicans = conditions: Yeast
[11] = over a 24-hour period, thermoset dental compound containing 1.0 wt % additive
Laboratory rats = conditions: ingestion
Streptococcus mutans [12] = conditions: dental composite, 1.0 wt % concentration, twenty four-hour period
Staphylococcus aureus = conditions: catheters of ethylvinyl acetate and polypropylene, up to 2.0 wt %, rabbits
[13] = tested on: Staphylococcus epidermidis; conditions: catheters of ethylvinyl acetate and polypropylene, up to 2.0 wt %, rabbits
Escherichia coli [14] = conditions: catheters of ethylvinyl acetate and polypropylene, up to 2.0 wt %, rabbits
[15] = catheters of ethylvinyl acetate and polypropylene, up to 2.0 wt %

Oc1cc(Cl)ccc1Oc1ccc(Cl)cc1Cl [Triclosan]
Minimum inhibitory Triclosan concentration (Actinomyces viscosus; Fresh isolate from human plaque, Colgate-Palmolive data, strain 1218): 0.8 µg/mL | Minimum inhibitory Triclosan concentration (Actinomyces viscosus; Oral Bacteria, laboratory strain NCTC10951): 0.8 µg/mL | Minimum inhibitory Triclosan concentration (Actinomyces viscosus; Oral Bacteria, laboratory strain T14V): 5.0 µg/mL | Minimum inhibitory Triclosan concentration (Actinomyces israeli): 1.0 µg/mL | Minimum inhibitory Triclosan concentration (Actinomyces naeslundi; laboratory strain 12104): 1.0 µg/mL | Minimum inhibitory Triclosan concentration (Actinomyces naeslundi; laboratory strain A): 1.0 µg/mL | Minimum inhibitory Triclosan concentration ([1]; Fresh isolate from human plaque, Colgate-Palmolive data, strain 1041): 0.8 µg/mL | Minimum inhibitory Triclosan concentration ([1]; Fresh isolate from human plaque, Colgate-Palmolive data, strain 1431): 0.8 µg/mL | Minimum inhibitory Triclosan concentration ([1]; Oral Bacteria, laboratory strain NCTC9935): 0.8 µg/mL | Minimum inhibitory Triclosan concentration (Streptococcus mitor; laboratory strain NCTC7864): 0.8 µg/mL | Minimum inhibitory Triclosan concentration (Streptococcus mitor; laboratory strain NCTC10712): 1.1 µg/mL | Minimum inhibitory Triclosan concentration (Streptococcus mutans [2]): 5.0 µg/mL | Minimum inhibitory Triclosan concentration (Steptococcus sobrinus): 11.0 µg/mL | Minimum inhibitory Triclosan concentration (Steptococcus sanguis): 2.0 µg/mL | Minimum inhibitory Triclosan concentration (Porphyromonas gingivalis): 2.0 µg/mL | Minimum inhibitory Triclosan concentration [3]: 5.0 µg/mL | Minimum inhibitory Triclosan concentration (Bacteroides gingivalis): 2.5 µg/mL | Minimum inhibitory Triclosan concentration (Bacteroides intermedius; laboratory strain 581): 2.5 µg/mL | Minimum inhibitory Triclosan concentration (Bacteroides intermedius; laboratory strain NCTC9336): 0.4 µg/mL | Minimum inhibitory Triclosan concentration (Fusobacterium nucleatum; Fresh isolate from human plaque, Colgate-Palmolive data, strain 1446): 0.8 µg/mL | Minimum inhibitory Triclosan concentration (Fusobacterium nucleatum; Oral Bacteria, laboratory strain NCTC10562): 1.2 µg/mL | Minimum inhibitory Triclosan concentration (Veillonella parvula; Fresh isolate from human plaque, Colgate-Palmolive data, strain 1167): 6.2 µg/mL | Minimum inhibitory Triclosan concentration (Veillonella parvula; Fresh isolate from human plaque, Colgate-Palmolive data, strain 1459): 2.3 µg/mL | Minimum inhibitory Triclosan concentration (Veillonella parvula; Oral Bacteria, laboratory strain NCTC): 5.4 µg/mL | Minimum inhibitory Triclosan concentration (C. ochracea): <0.4 µg/mL | Minimum inhibitory Triclosan concentration [4]: <0.6 µg/mL | Minimum inhibitory Triclosan concentration (Lactobacilli): 33.0 µg/mL | Minimum inhibitory Triclosan concentration ([5]; strain 1426): <0.3 µg/mL | Minimum inhibitory Triclosan concentration ([5]; strain 1483): <0.3 µg/mL | Minimum inhibitory Triclosan concentration (Capnocytophaga spp; strain 287): 0.8 µg/mL | Minimum inhibitory Triclosan concentration (Capnocytophaga spp; strain 290): 2.3 µg/mL | Minimum inhibitory Triclosan concentration (Capnocytophaga spp; strain 310): 0.8 µg/mL | Minimum inhibitory Triclosan concentration (P. anaerobius; strain 580): 0.6 µg/mL | Minimum inhibitory Triclosan concentration (P. anaerobius; strain 1198): 2.3 µg/mL | Minimum inhibitory Triclosan concentration [6]: 3.1 µg/mL | Minimum inhibitory Triclosan concentration (P. acnes): 2.3 µg/mL | Minimum inhibitory Triclosan concentration (S. milleri; strain 1339): 2.3 µg/mL | Minimum inhibitory Triclosan concentration (S. milleri; strain 1391): 2.3 µg/mL | Minimum inhibitory Triclosan concentration (S. mitior; strain 1384): 2.3 µg/mL | Minimum inhibitory Triclosan concentration (S. mitior; strain 1387): 2.3 µg/mL | Minimum inhibitory Triclosan concentration (W. recta): 0.8 µg/mL | Minimum inhibitory Triclosan concentration (Staphlococcus aureus; strain ATCC9144): 0.05 µg/mL | Minimum inhibitory Triclosan concentration (Staphlococcus aureus; strain ATCC29213): <0.125 µg/mL | Minimum inhibitory Triclosan concentration (Staphlococcus aureus; strain NCTC11150): 0.02 µg/mL | Minimum inhibitory Triclosan concentration (Staphlococcus aureus; strain NCTC12232): 0.01 µg/mL | Minimum inhibitory Triclosan concentration [7]: <0.125 µg/mL | Minimum inhibitory Triclosan concentration (Staphlococcus hyicus): 0.03 µg/mL | Minimum inhibitory Triclosan concentration (Staphlococcus hominus): 1.0 µg/mL | Minimum inhibitory Triclosan concentration [8]: 0.1 µg/mL | Minimum inhibitory Triclosan concentration (Escherichia coli [9]; strain ATCC9661): 0.3 µg/mL | Minimum inhibitory Triclosan concentration (Escherichia coli [9]; strain ATCC43888): 0.1 µg/mL | Minimum inhibitory Triclosan concentration (Escherichia coli [9]; strain NCTC8196): 0.02 µg/mL | Minimum inhibitory Triclosan concentration (Escherichia coli [9]; strain NCTC11186): 0.5 µg/mL | Minimum inhibitory Triclosan concentration [10]: 3.0 µg/mL | Minimum inhibitory Triclosan concentration (Pseudomonas aeruginosa; strain ATCC12055): >1000 µg/mL | Minimum inhibitory Triclosan concentration (Pseudomonas aeruginosa; strain NCTC8060): >1000 µg/mL | Minimum inhibitory Triclosan concentration (Listeria monocytogenes): 1.0 µg/mL | Minimum inhibitory Triclosan concentration (Salmonella enteritidis): 0.1 µg/mL | Minimum inhibitory Triclosan concentration (Candida albicans; strain A): 10.0 µg/mL | Minimum inhibitory Triclosan concentration (Candida albicans; strain ATCC10259): 3.0 µg/mL | solubility (sparingly soluble) (at 20 C°): 0.001 grams per liter | Triclosan water solubility (at 37 C. °): Triclosan water solubility approximately 30 ug/ml at 37 C. ° | water solubility (at 50 C°): 40 µg/mL (≈ 138 µM) | Triclosan release in water [11]: 0.02 ppm | amount ingested without ill effect (Laboratory rats): greater than 5000 mg/Kg | Streptococcus mutans formation and adhesion (Streptococcus mutans [12]): reduced Streptococcus mutans formation and adhesion | effectiveness against Staphylococcus aureus (Staphylococcus aureus): effectiveness | effectiveness against Staphylococcus epidermidis [13]: effectiveness | effectiveness against Escherichia coli (Escherichia coli [14]): effectiveness | leaching [15]: high leaching
